Test results: PMC6931042 (Bioorganic chemistry, 2018)
Several values for one entry are separate records, joined by “and”; a condition that tells them apart may be missing. Identical values can stand only once. Like-named read-outs stand apart in the source and are kept apart here.

Assays:
MOLT-4 = assay: NCI in vitro five dose anticancer assay; assay type: cell-based, human
RPMI-8226 = assay: NCI in vitro five dose anticancer assay; assay type: cell-based, human
SK-MEL-5 = assay: NCI in vitro five dose anticancer assay; assay type: cell-based, human
NCI 60 cell lines = assay: NCI single dose; assay type: cell-based, human; settings: 48 h
T-47D = assay: NCI in vitro five dose anticancer assay; assay type: cell-based, human
[1] = tested on: human lung adenocarcinoma A549; assay: Trypan blue exclusion cytotoxicity assay
[2] = tested on: Bax and cleaved caspases (3, 8, and 9) in K-562 cells; assay: Western blotting, apoptosis markers; assay type: cell-based, human; settings: 24 h, 1, 3 and 6 μM, western blot; for levels of Bax / levels of cleaved caspase 3 / levels of cleaved caspase 9: dose-dependent
MDA-MB-435 = assay: NCI in vitro five dose anticancer assay; assay type: cell-based, human
A549 cells = assay: Cell cycle analysis by flow cytometry; assay type: cell-based, human; settings: 24 h
PI3K-α = PI3K-α (Homo sapiens, UniProt P42336); assay: PI3K biochemical assay
Chain of PI3K-α (P42336 whole entry): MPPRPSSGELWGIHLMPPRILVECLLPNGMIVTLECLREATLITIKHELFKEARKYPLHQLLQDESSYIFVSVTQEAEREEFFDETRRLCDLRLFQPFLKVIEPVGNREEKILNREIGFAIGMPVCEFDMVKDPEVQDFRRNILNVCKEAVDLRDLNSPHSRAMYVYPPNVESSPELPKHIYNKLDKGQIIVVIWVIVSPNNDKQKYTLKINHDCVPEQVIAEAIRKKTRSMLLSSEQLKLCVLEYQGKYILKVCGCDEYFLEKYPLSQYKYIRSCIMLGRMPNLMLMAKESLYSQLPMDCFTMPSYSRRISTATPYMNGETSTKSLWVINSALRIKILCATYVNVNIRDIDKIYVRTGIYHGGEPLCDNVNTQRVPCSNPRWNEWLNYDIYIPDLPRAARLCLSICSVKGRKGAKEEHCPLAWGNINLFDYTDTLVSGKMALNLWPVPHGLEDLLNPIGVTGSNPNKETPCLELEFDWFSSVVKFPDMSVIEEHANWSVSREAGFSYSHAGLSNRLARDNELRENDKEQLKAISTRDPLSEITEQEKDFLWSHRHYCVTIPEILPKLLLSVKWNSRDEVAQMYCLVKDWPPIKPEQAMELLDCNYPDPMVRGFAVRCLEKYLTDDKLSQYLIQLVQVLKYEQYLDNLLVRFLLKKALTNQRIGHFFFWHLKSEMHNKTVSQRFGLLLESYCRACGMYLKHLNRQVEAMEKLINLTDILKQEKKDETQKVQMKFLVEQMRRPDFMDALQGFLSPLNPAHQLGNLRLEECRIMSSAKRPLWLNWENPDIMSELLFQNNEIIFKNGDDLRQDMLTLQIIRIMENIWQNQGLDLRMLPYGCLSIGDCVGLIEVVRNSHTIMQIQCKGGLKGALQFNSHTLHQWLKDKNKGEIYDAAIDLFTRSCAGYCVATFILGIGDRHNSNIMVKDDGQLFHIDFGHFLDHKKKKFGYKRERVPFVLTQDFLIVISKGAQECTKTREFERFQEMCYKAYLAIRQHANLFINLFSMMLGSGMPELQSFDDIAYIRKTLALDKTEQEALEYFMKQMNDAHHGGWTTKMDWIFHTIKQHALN
Chain of PI3K-α (P27986 whole entry partner): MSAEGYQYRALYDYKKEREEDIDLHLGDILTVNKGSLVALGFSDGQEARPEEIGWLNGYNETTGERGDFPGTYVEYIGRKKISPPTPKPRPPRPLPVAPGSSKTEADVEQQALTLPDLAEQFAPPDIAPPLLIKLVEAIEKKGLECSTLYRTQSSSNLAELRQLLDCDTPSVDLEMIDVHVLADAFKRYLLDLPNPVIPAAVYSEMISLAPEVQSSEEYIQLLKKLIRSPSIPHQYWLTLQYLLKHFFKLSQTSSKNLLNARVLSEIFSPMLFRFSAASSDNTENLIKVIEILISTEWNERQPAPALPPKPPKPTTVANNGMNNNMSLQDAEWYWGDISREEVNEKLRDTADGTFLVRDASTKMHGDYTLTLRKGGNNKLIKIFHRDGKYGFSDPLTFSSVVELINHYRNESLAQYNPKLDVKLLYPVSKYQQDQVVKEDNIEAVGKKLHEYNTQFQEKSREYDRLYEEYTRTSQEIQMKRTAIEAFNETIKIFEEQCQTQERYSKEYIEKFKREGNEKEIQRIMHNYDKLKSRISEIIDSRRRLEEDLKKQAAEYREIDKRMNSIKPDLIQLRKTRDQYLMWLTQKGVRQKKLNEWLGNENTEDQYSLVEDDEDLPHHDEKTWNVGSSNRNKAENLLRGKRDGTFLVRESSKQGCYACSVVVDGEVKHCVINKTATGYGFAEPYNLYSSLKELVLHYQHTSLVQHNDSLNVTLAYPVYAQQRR

SNB-19 = assay: NCI in vitro five dose anticancer assay; assay type: cell-based, human
HCT-15 = assay: NCI in vitro five dose anticancer assay; assay type: cell-based, human
SK-OV-3 = assay: NCI in vitro five dose anticancer assay; assay type: cell-based, human
COLO 205 = assay: NCI in vitro five dose anticancer assay; assay type: cell-based, human
UACC-62 = assay: NCI in vitro five dose anticancer assay; assay type: cell-based, human
SF-295 = assay: NCI in vitro five dose anticancer assay; assay type: cell-based, human
A498 = assay: NCI in vitro five dose anticancer assay; assay type: cell-based, human
TK-10 = assay: NCI in vitro five dose anticancer assay; assay type: cell-based, human
IGROV1 = assay: NCI in vitro five dose anticancer assay; assay type: cell-based, human
PI3K-β = PI3K-β (Homo sapiens, UniProt P42338); assay: PI3K biochemical assay
Chain of PI3K-β (P42338 whole entry): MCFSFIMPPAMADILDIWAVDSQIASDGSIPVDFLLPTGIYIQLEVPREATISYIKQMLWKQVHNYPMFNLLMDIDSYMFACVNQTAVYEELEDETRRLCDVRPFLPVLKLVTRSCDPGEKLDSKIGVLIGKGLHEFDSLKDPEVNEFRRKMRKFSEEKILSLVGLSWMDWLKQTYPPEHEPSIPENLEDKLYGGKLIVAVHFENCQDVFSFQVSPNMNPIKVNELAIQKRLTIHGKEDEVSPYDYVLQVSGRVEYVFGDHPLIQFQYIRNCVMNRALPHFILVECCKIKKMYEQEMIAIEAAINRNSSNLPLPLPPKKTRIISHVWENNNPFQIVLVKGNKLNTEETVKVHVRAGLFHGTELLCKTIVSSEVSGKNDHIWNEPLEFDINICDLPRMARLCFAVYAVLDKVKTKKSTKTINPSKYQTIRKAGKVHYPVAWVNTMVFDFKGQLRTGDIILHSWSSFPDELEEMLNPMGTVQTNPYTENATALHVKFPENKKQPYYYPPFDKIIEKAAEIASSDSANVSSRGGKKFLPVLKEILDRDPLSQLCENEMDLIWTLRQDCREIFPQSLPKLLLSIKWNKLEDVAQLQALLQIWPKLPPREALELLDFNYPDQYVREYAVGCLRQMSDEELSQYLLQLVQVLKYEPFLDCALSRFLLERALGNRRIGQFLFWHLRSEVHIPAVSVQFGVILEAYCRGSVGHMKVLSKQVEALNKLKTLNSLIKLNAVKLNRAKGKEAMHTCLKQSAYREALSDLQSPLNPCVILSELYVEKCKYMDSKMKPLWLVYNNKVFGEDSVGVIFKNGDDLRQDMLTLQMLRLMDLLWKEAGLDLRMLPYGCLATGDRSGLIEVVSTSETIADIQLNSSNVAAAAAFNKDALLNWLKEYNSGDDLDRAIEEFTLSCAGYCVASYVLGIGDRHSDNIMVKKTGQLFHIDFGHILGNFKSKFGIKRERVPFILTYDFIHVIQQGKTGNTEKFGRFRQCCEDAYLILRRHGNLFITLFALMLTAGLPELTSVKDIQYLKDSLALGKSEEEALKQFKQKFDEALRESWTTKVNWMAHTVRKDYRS
Chain of PI3K-β (P27986 whole entry partner): as the sequence (P27986 whole entry partner) above

HCT-116 = assay: NCI in vitro five dose anticancer assay; assay type: cell-based, human
SF-268 = assay: NCI in vitro five dose anticancer assay; assay type: cell-based, human
KM12 = assay: NCI in vitro five dose anticancer assay; assay type: cell-based, human
SW-620 = assay: NCI in vitro five dose anticancer assay; assay type: cell-based, human
SN12C = assay: NCI in vitro five dose anticancer assay; assay type: cell-based, human
OVCAR-3 = assay: NCI in vitro five dose anticancer assay; assay type: cell-based, human
[3] = tested on: chronic myeloid leukemia K-562; assay: Trypan blue exclusion cytotoxicity assay
[4] = tested on: p-PI3K, p-Akt, p-mTOR and p-GSK-3β in K-562 cells; assay: Western blotting, PI3K/Akt/mTOR pathway; assay type: cell-based, human; settings: 1, 3, or 6 μM, western blot, dose-dependent
[5] = tested on: p-PI3K, p-Akt, p-mTOR and p-GSK-3β in A549 cells; assay: Western blotting, PI3K/Akt/mTOR pathway; assay type: cell-based, human; settings: 1, 3, or 6 μM, western blot, dose-dependent
RXF 393 = assay: NCI in vitro five dose anticancer assay; assay type: cell-based, human
NCI-H460 = assay: NCI in vitro five dose anticancer assay; assay type: cell-based, human
SR = assay: NCI in vitro five dose anticancer assay; assay type: cell-based, human
NCI/ADR-RES = assay: NCI in vitro five dose anticancer assay; assay type: cell-based, human
[6] = tested on: p53, p21, cyclin B1 and Cdc2 in A549 cells; assay: Western blotting, p53 and cell cycle regulators; assay type: cell-based, human; settings: 1, 3 and 6 μM, western blot; for expression of Cdc2 / expression of cyclin B1 / expression of p21: dose dependent
NCI-H522 = assay: NCI in vitro five dose anticancer assay; assay type: cell-based, human
MCF7 = assay: NCI in vitro five dose anticancer assay; assay type: cell-based, human
SK-MEL-2 = assay: NCI in vitro five dose anticancer assay; assay type: cell-based, human
ACHN = assay: NCI in vitro five dose anticancer assay; assay type: cell-based, human
UACC-257 = assay: NCI in vitro five dose anticancer assay; assay type: cell-based, human
OVCAR-8 = assay: NCI in vitro five dose anticancer assay; assay type: cell-based, human
HT29 = assay: NCI in vitro five dose anticancer assay; assay type: cell-based, human
MALME-3M = assay: NCI in vitro five dose anticancer assay; assay type: cell-based, human
NCI-H226 = assay: NCI in vitro five dose anticancer assay; assay type: cell-based, human
HL-60(TB) = assay: NCI in vitro five dose anticancer assay; assay type: cell-based, human
[7] = read-out: A549 (IC50 μM), trypan blue exclusion, 24 h, mean ± SD
[8] = Ovarian cancer, five dose assay
[9] = read-out: K-562 (IC50 μM), trypan blue exclusion, 24 h, mean ± SD
[10] = Non-small cell lung cancer, five dose assay

`COc1ccc(-c2cc(C(=O)NN=C(/C=C\c3ccc(Cl)cc3)c3ccc(N)cc3)c3ccccc3n2)cc1` [Compound 9i, N’-((Z)-1-(4-Aminophenyl)-3-(4-chlorophenyl)allylidene)-2-(4-methoxphenyl)quinoline-4-carbohydrazide] showed a GI50 (MOLT-4; Leukemia, five dose assay) of 3.3 µM, a GI50 (RPMI-8226; Leukemia, five dose assay) of 3.86 µM and a GI50 (SK-MEL-5; Melanoma, five dose assay) of 701 nM. The mean growth inhibition (NCI 60 cell lines; 10 μM single dose, mean over NCI 60 cell lines) was 73.03%, the GI50 (T-47D; Breast cancer, T-47D, five dose assay) was 2700 nM and the IC50 [1, 7] was 4 µM and 3.9 µM and 3.91 µM. For the same compound, the “levels of cleaved caspase 8” value [2] was “not change”, the “levels of Bax” value [2] was “increased” and the “levels of cleaved caspase 3” value [2] was “increased”. The “levels of cleaved caspase 9” value [2] was “increased”, the GI50 (MDA-MB-435; Melanoma, five dose assay) was 305 nM and the “percentage of cells in the G2/M phase” value (A549 cells; 1 μM) was 11%. For the same compound, the “percentage of cells in the G2/M phase” value (A549 cells; 3 μM) was 61.2%, the “percentage of cells in the G2/M phase” value (A549 cells; 6 μM) was 76.2% and the IC50 (PI3K-α; read-out: IC50 (nM) PI3K-α, ADP-Glo, ATP 10 μM) was 248 nM. For the same compound, the GI50 (SNB-19; CNS cancer, five dose assay) was 5.54 µM, the GI50 (HCT-15; Colon cancer, five dose assay) was 1030 nM and the GI50 (SK-OV-3; [8]) was 3.32 µM. The GI50 (COLO 205; Colon cancer, five dose assay) was 1990 nM, the GI50 (UACC-62; Melanoma, five dose assay) was 556 nM and the GI50 (SF-295; CNS cancer, five dose assay) was 540 nM. For the same compound, the GI50 (A498; Renal cancer, five dose assay) was 375 nM, the GI50 (TK-10; Renal cancer, five dose assay) was 52.3 µM and the GI50 (IGROV1; Ovarian cancer, IGROV1, five dose assay) was 4.98 µM. For the same compound, the IC50 (PI3K-β; read-out: IC50 (nM) PI3K-β, ADP-Glo, ATP 30 μM) was 296 nM, the GI50 (HCT-116; Colon cancer, five dose assay) was 1410 nM and the GI50 (SF-268; CNS cancer, five dose assay) was 2.19 µM. The GI50 (KM12; Colon cancer, five dose assay) was 1150 nM, the GI50 (SW-620; Colon cancer, five dose assay) was 1240 nM and the GI50 (SN12C; Renal cancer, five dose assay) was 4.27 µM. For the same compound, the GI50 (OVCAR-3; [8]) was 462 nM, the IC50 [3, 9] was 1.9 µM and 1.91 µM and the “levels of phosphorylated Akt (at Ser473)” value [4] was “decreases”. The “levels of phosphorylated GSK-3β” value [4] was “decreases”, the “levels of phosphorylated PI3K (at Tyr458)” value (from here on “levels … (at Tyr458)”) [4] was “decreases” and the “levels of phosphorylated mTOR (at Ser2448)” value (“levels of phosphorylated mTOR” for short) [4] was “decreases”. For the same compound, the “levels of phosphorylated Akt (at Ser473)” value [5] was “decreases”, the “levels of phosphorylated GSK-3β” value [5] was “decreases” and the “levels … (at Tyr458)” value [5] was “decreases”. The “levels of phosphorylated mTOR” value [5] was “decreases”, the GI50 (RXF 393; Renal cancer, five dose assay) was 698 nM and the GI50 (NCI-H460; [10]) was 1890 nM. The GI50 (SR; Leukemia, five dose assay) was 595 nM, the GI50 (NCI/ADR-RES; [8]) was 519 nM and the “expression of wild type p53” value [6] was “upregulated”. The “expression of Cdc2” value [6] was “attenuated”, the “expression of cyclin B1” value [6] was “attenuated” and the “expression of p21” value [6] was “significantly induced”. It also gave a GI50 (NCI-H522; [10]) of 307 nM, a GI50 (MCF7; Breast cancer, five dose assay) of 442 nM and a GI50 (SK-MEL-2; Melanoma, five dose assay) of 2030 nM. The GI50 (ACHN; Renal cancer, five dose assay) was 1470 nM, the GI50 (UACC-257; Melanoma, five dose assay) was > 100 µM and the GI50 (OVCAR-8; [8]) was 4.16 µM. For the same compound, the GI50 (HT29; Colon cancer, HT29, five dose assay) was 1130 nM, the GI50 (MALME-3M; Melanoma, MALME-3M, five dose assay) was > 100 µM and the GI50 (NCI-H226; [10]) was 7.54 µM. It also gave a GI50 (HL-60(TB); Leukemia, HL-60(TB), five dose assay) of 2.54 µM.
In the case of `Cc1ccc(-c2cc(C(=O)NN=C(/C=C\c3ccc(Cl)cc3)c3ccc(N)cc3)c3ccccc3n2)cc1` [Compound 9j, N’-((Z)-1-(4-Aminophenyl)-3-(4-chlorophenyl)allylidene)-2-(4-methylphenyl)quinoline-4-carbohydrazide], the GI50 (MOLT-4; Homo sapiens) is reported as 3.23 µM, the GI50 (RPMI-8226; Homo sapiens) is reported as 4.1 µM and the GI50 (SK-MEL-5; Homo sapiens) is reported as 2500 nM. For the same compound, the inhibition at 10 µM (NCI 60 cell lines; Homo sapiens, 60 cell, read-out: mean growth inhibition) was 74%, the GI50 (T-47D; Homo sapiens, T47D) was 2730 nM and the IC50 ([1]; Homo sapiens, A549, 24 h, read-out: A549 (IC50 μM), trypan blue exclusion, mean ± SD) was 5 µM. For the same compound, the IC50 [1, 7] was 5.29 ± 0.19 µM, the “levels of cleaved caspase 8” value [2] was “not change” and the “levels of Bax” value [2] was “increased”. For the same compound, the “levels of cleaved caspase 3” value [2] was “increased”, the “levels of cleaved caspase 9” value [2] was “increased” and the GI50 (MDA-MB-435; Homo sapiens) was 1000 nM. For the same compound, the “percentage of cells in the G2/M phase” value (A549 cells; 1 μM) was 6.22%, the “percentage of cells in the G2/M phase” value (A549 cells; 3 μM) was 15.8% and the “percentage of cells in the G2/M phase” value (A549 cells; 6 μM) was 59.6%. It also gave an IC50 (PI3K-α) of 271 nM, a GI50 (SNB-19; Homo sapiens) of 6.51 µM and a GI50 (HCT-15; Homo sapiens) of 3330 nM. For the same compound, the GI50 (SK-OV-3; Homo sapiens) was 4.94 µM, the GI50 (COLO 205; Homo sapiens) was 2800 nM and the GI50 (UACC-62; Homo sapiens) was 2060 nM. It also gave a GI50 (SF-295; Homo sapiens) of 3130 nM, a GI50 (A498; Homo sapiens) of 1640 nM and a GI50 (TK-10; Homo sapiens) of 8.51 µM. It also gave a GI50 (IGROV1; Homo sapiens, IGROV-1) of 6.48 µM, an IC50 (PI3K-β) of 360 nM and a GI50 (HCT-116; Homo sapiens) of 3180 nM. For the same compound, the GI50 (SF-268; Homo sapiens) was 4.09 µM, the GI50 (KM12; Homo sapiens) was 3460 nM and the GI50 (SW-620; Homo sapiens) was 4240 nM. The GI50 (SN12C; Homo sapiens) was 6.84 µM, the GI50 (OVCAR-3; Homo sapiens) was 2980 nM and the IC50 ([3]; Homo sapiens, K562, 24 h, read-out: K-562 (IC50 μM), trypan blue exclusion, mean ± SD) was 2.7 µM. The IC50 [3, 9] was 2.67 ± 0.27 µM, the “levels of phosphorylated Akt (at Ser473)” value [4] was “decreases” and the “levels of phosphorylated GSK-3β” value [4] was “decreases”. For the same compound, the “levels … (at Tyr458)” value [4] was “decreases”, the “levels of phosphorylated mTOR” value [4] was “decreases” and the “levels of phosphorylated Akt (at Ser473)” value [5] was “decreases”. The “levels of phosphorylated GSK-3β” value [5] was “decreases”, the “levels … (at Tyr458)” value [5] was “decreases” and the “levels of phosphorylated mTOR” value [5] was “decreases”. It also gave a GI50 (RXF 393; Homo sapiens) of 1630 nM, a GI50 (NCI-H460; Homo sapiens) of 3510 nM and a GI50 (SR; Homo sapiens) of 3290 nM. For the same compound, the GI50 (NCI/ADR-RES; Homo sapiens) was 2540 nM, the “expression of wild type p53” value [6] was “upregulated” and the “expression of Cdc2” value [6] was “attenuated”. For the same compound, the “expression of cyclin B1” value [6] was “attenuated”, the “expression of p21” value [6] was “significantly induced” and the GI50 (NCI-H522; Homo sapiens) was 622 nM. It also gave a GI50 (MCF7; Homo sapiens) of 2530 nM, a GI50 (SK-MEL-2; Homo sapiens) of 3810 nM and a GI50 (ACHN; Homo sapiens) of 4190 nM. The GI50 (UACC-257; Homo sapiens) was 33.7 µM, the GI50 (OVCAR-8; Homo sapiens) was 5.25 µM and the GI50 (HT29; Homo sapiens, HT-29) was 3350 nM. The GI50 (MALME-3M; Homo sapiens, Malme-3M) was > 100 µM, the GI50 (NCI-H226; Homo sapiens) was 6.47 µM and the GI50 (HL-60(TB); Homo sapiens, HL-60) was 3.49 µM.
